The source of these data is PMC7024391, “Trypanocidal Activity of Flavanone Derivatives” (Molecules, 2020).

Data set [1] has as its system Trypanosoma cruzi (amastigotes and trypomastigotes), Tulahuen strain. Put plainly: Anti-Trypanosoma cruzi activity assay (amastigotes and trypomastigotes) in infected L929 cells, beta-galactosidase reporter. In kind it is cell-based. The settings on record: 96 h incubation; for IC50: Trypanosoma cruzi, ± 0.2, read-out: Trypanocide IC50(μM) ± 0.2. Here is the method:
Flavanone derivatives were evaluated for anti-T. cruzi activity against the intracellular forms of the parasite. Although the use of epimastigotes present in the midgut vector may be utilized for initial screening, we have instead opted for the simultaneous use of trypomastigote and intracellular amastigotes forms that are present during both acute and chronic phases of the disease. This approach is in accordance with the Drugs for Neglected Diseases Initiative guidelines (DNDi). Moreover, it also has the advantage of evaluating bioactive compounds in infected cells while at the same time monitoring their effects on both the relevant forms of the parasite in the same system. Benznidazole was used as a positive control against T. cruzi and cytotoxicity was determined in mammalian L929 cells (Table 1). The bioavailability profile of the flavanones was evaluated by applying the Lipinski rule and data related to the risk of toxicity (mutagenicity, tumorigenicity, irritability, and effects on the reproductive system) carried out through online programs “Molinspiration” and “OSIRIS property explorer” (Table 1). […] Nevertheless, this preliminary result motivated us to investigate other analogs bearing substituents in order to improve potency and selectivity. […] Moreover, the selectivity of 2d was almost 4 times greater than 2a. The importance of methoxy substituents for trypanocidal activity has been noted in other studies. […] These compounds resembled more closely the chemical structure of the trypanocidal natural product (brevifolin carboxylate) that these structures were based on. Some enhancement in the trypanocidal activity of hybrid coumarin-chalcone compounds was also noted when the methoxy groups were introduced into either the 2 or 5 positions of the benzene ring. The inclusion of a pyridine moiety in compound 2e was supported by previous reports describing the anti-T. cruzi activity of 2-pyridyl derivatives and their capacity to inhibit cruzain catalytic activity. […] No improvements in anti-T. cruzi activity were also observed for flavanones substituted at the benzoyl moiety (2g–2o and 2v–2x). […] The physicochemical drug descriptors of the molecular properties for the synthesized compounds were calculated by Molinspiration software (Table 1). The majority of the tested compounds satisfy the Lipinski rule with no violations and therefore displaying potentially good bioavailability. There were no linear correlations observed between molecular hydrophobicity and bioactivity.
The in vitro anti-T. cruzi activity was evaluated on L929 cells (mouse fibroblasts) infected with Tulahuen strain of the parasite expressing the Escherichia coli β-galactosidase as reporter gene. Briefly, for the bioassay, 4000 L929 cells were added to each well of a 96-well microtiter plate. After an overnight incubation, 40,000 trypomastigotes were added to the cells and incubated for 2 h. Then, the medium containing extracellular parasites were replaced with 200 μL of fresh medium and the plate was incubated for an additional 48 h to establish the infection. For IC50 determination, the cells were exposed to each synthesized compound at serial decreasing dilutions and the plate was incubated for 96 h. After this period, 50 μL of 500 μM chlorophenol red beta-D-galactopyranoside (CPRG) in 0.5% Nonidet P40 was added to each well, and the plate was incubated for 16–20 h, after which the absorbance at 570 nm was measured. Controls with uninfected cells, untreated infected cells, infected cells treated with Benznidazole at 3.8 μM (positive control) or DMSO 1% were used. The results were expressed as the percentage of T. cruzi growth inhibition in compound-tested cells as compared to the infected cells and untreated cells. The IC50 values were calculated by linear interpolation. Quadruplicates were run in the same plate, and the experiments were repeated at least once.

Data set [2] is described as follows: In vitro cytotoxic test on uninfected L-929 cells (alamarBlue). In kind it is cell-based, mouse. The note with it: mouse, uninfected L-929 cells; mammalian L929 cells, 96 h, alamarBlue; ± 2.0; read-out: Cytotoxicity CC50(μM) ± 2.0. How it is done: (§1) The active compounds were tested in vitro for determination of cellular toxicity against uninfected L-929 cells using the alamarBlue® dye. The cells were exposed to compounds at increasing concentrations starting at IC50 value for T. cruzi. After 96 h of incubation with the tested compounds, the alamarBlue® was added and the absorbance at 570 and 600 nm measured after 4–6 h. The cell viability was expressed as the percentage of difference in the reduction between treated and untreated cells. IC50 values were calculated by linear interpolation, and the selectivity index (SI) was determined based on the ratio of the IC50 value in the host cell divided by the IC50 value of the parasite. Quadruplicates were run in the same plate, and the experiments were repeated at least once.
On the technique in general: The colour change of resazurin is a common sign of viable cells or microbes.

The test system of another data set is L929 cells. The data set is described as above. The note with it: CC50 L929 / IC50 T. cruzi. In kind it is cell-based, mouse. Here is the method:
as §1

`O=C(c1ccccc1)[C@@H]1C(=O)c2ccccc2O[C@H]1c1ccccc1` (relative stereo) [Compound 2a, trans-3-benzoyl-2-phenylchroman-4-one]: the IC50 in data set [1] is 8.8 µM. Moreover, the CC50 at 96 h in data set [2] is 80 µM. The “SI (selectivity index calculated from CC50/IC50)” value with L929 cells was 9.1.

For the compound `O=C(c1ccccc1)[C@@H]1C(=O)c2ccccc2O[C@H]1c1ccccc1Cl` (relative stereo) [Compound 2b, trans-3-benzoyl-2-(2-chlorophenyl)chroman-4-one], in data set [1], the IC50 is 10.7 µM. In addition, the CC50 at 96 h in data set [2] came out at 442 µM. In addition, the “SI (selectivity index calculated from CC50/IC50)” value in the data set on L929 cells was 40.3.

With `O=C(c1ccccc1)[C@@H]1C(=O)c2ccccc2O[C@H]1c1ccc(F)cc1` (relative stereo) [Compound 2c, trans-3-benzoyl-2-(4-fluorophenyl)chroman-4-one], in data set [1], the concentration for half-maximal inhibition (IC50) stood at 21.9 µM. The cytotoxic concentration (CC50) at 96 h in data set [2] was determined as 231 µM. For the same compound, the “SI (selectivity index calculated from CC50/IC50)” value in the data set on L929 cells is recorded as 10.5.

On to `COc1ccc([C@@H]2Oc3ccccc3C(=O)[C@H]2C(=O)c2ccccc2)cc1` (relative stereo) [Compound 2d, trans-3-benzoyl-2-(4-methoxyphenyl)chroman-4-one], for which the IC50 in data set [1] was determined as 5.8 µM. In data set [2], the CC50 at 96 h was 223 µM. Also, in the data set on L929 cells, the “SI (selectivity index calculated from CC50/IC50)” value is on record as 38.5.

`O=C(c1ccccc1)[C@@H]1C(=O)c2ccccc2O[C@H]1c1ccccn1` (relative stereo) [Compound 2e, trans-3-benzoyl-2-(pyridin-2-yl)chroman-4-one]: the IC50 in data set [1] turned out to be 184 µM. Besides, in data set [2], the CC50 at 96 h amounted to 243 µM. The “SI (selectivity index calculated from CC50/IC50)” value in the data set with L929 cells is 1.3.

Turning to `O=C(c1ccccc1)[C@@H]1C(=O)c2ccccc2O[C@H]1c1ccc(OCc2ccccc2)cc1` (relative stereo) [Compound 2f, trans-3-benzoyl-2-(4-(benzyloxy)phenyl)chroman-4-one], the 50% inhibitory concentration (IC50) in data set [1] turned out to be 7.6 µM. The CC50 at 96 h in data set [2] was 92.1 µM. Besides, the “SI (selectivity index calculated from CC50/IC50)” value with L929 cells was 12.1.

Regarding `Cc1ccc(C(=O)[C@@H]2C(=O)c3ccccc3O[C@H]2c2ccccc2)cc1` (relative stereo) [Compound 2g, trans-3-(4-methylbenzoyl)-2-phenylchroman-4-one], in data set [1], the “Trypanocide IC50(μM) ± 0.2” value is “Inactive”.

Take `Cc1ccc(C(=O)[C@@H]2C(=O)c3ccccc3O[C@H]2c2ccc(F)cc2)cc1` (relative stereo) [Compound 2h, trans-2-(4-fluorophenyl)-3-(4-methylbenzoyl)chroman-4-one]: in data set [1], the half-maximal inhibitory concentration (IC50) worked out at 22.5 µM. Also, in data set [2], the CC50 at 96 h amounted to 111 µM. The “SI (selectivity index calculated from CC50/IC50)” value in the data set with L929 cells was 4.9.

As to `COc1ccc([C@@H]2Oc3ccccc3C(=O)[C@H]2C(=O)c2ccc(C)cc2)cc1` (relative stereo) [Compound 2i, trans-2-(4-methoxyphenyl)-3-(4-methylbenzoyl)chroman-4-one], the IC50 in data set [1] came to 25 µM. Further, the CC50 at 96 h in data set [2] was determined as 107 µM. Besides, the “SI (selectivity index calculated from CC50/IC50)” value in the data set on L929 cells is 4.3.

As for `Cc1ccc(C(=O)[C@@H]2C(=O)c3ccccc3O[C@H]2c2ccccc2Cl)cc1` (relative stereo) [Compound 2j, trans-2-(2-chlorophenyl)-3-(4-methylbenzoyl)chroman-4-one], in data set [1], the IC50 is 63 µM. In addition, in data set [2], the CC50 at 96 h came to 62.5 µM. Also, in the data set with L929 cells, the “SI (selectivity index calculated from CC50/IC50)” value is on record as 1.

As for `O=C(c1ccc(Cl)cc1)[C@@H]1C(=O)c2ccccc2O[C@H]1c1ccccc1` (relative stereo) [Compound 2k, trans-3-(4-chlorobenzoyl)-2-phenylchroman-4-one], the IC50 in data set [1] was 29.3 µM. For the same compound, the CC50 at 96 h in data set [2] came out at 110 µM. Also, in the data set on L929 cells, the “SI (selectivity index calculated from CC50/IC50)” value is listed as 3.8.

For `COc1ccc(C(=O)[C@@H]2C(=O)c3ccccc3O[C@H]2c2ccccc2)cc1` (relative stereo) [Compound 2l, trans-3-(4-methoxybenzoyl)-2-phenylchroman-4-one], the IC50 in data set [1] worked out at 223 µM. Also, the CC50 at 96 h in data set [2] is 223 µM. Further, the “SI (selectivity index calculated from CC50/IC50)” value in the data set on L929 cells was 1.

On to `COc1ccc(C(=O)[C@@H]2C(=O)c3ccccc3O[C@H]2c2ccc(OC)cc2)cc1` (relative stereo) [Compound 2m, trans-3-(4-methoxybenzoyl)-2-(4-methoxyphenyl)chroman-4-one], for which the concentration for half-maximal inhibition (IC50) in data set [1] came to 37.4 µM. In data set [2], the CC50 at 96 h was determined as 103 µM. In addition, the “SI (selectivity index calculated from CC50/IC50)” value in the data set with L929 cells was 2.8.

Turning to `COc1ccc(C(=O)[C@@H]2C(=O)c3ccccc3O[C@H]2c2ccc(F)cc2)cc1` (relative stereo) [Compound 2n, trans-2-(4-fluorophenyl)-3-(4-methoxybenzoyl)chroman-4-one], the IC50 in data set [1] turned out to be 213 µM.

As to `COc1ccc(C(=O)[C@@H]2C(=O)c3ccccc3O[C@H]2c2ccccc2Cl)cc1` (relative stereo) [Compound 2o, trans-2-(2-chlorophenyl)-3-(4-methoxybenzoyl)chroman-4-one], the half-inhibitory concentration (IC50) in data set [1] came out at 26.5 µM. Further, the CC50 at 96 h in data set [2] turned out to be 408 µM. Besides, in the data set on L929 cells, the “SI (selectivity index calculated from CC50/IC50)” value is 15.4.

For `COc1ccc2c(c1)C(=O)[C@@H](C(=O)c1ccccc1)[C@H](c1ccccc1)O2` (relative stereo) [Compound 2p, trans-3-benzoyl-6-methoxy-2-phenylchroman-4-one], the “Trypanocide IC50(μM) ± 0.2” value in data set [1] is listed as “Inactive”.

Turning to `COc1ccc([C@@H]2Oc3ccc(OC)cc3C(=O)[C@H]2C(=O)c2ccccc2)cc1` (relative stereo) [Compound 2q, trans-3-benzoyl-6-methoxy-2-(4-methoxyphenyl)chroman-4-one], the IC50 in data set [1] came to 141 µM. In addition, the 50% cytotoxic concentration (CC50) at 96 h in data set [2] was 206 µM. Moreover, the “SI (selectivity index calculated from CC50/IC50)” value in the data set with L929 cells was 1.4.

On to `COc1ccc2c(c1)C(=O)[C@@H](C(=O)c1ccccc1)[C@H](c1ccc(F)cc1)O2` (relative stereo) [Compound 2r, trans-3-benzoyl-2-(4-fluorophenyl)-6-methoxychroman-4-one], for which the IC50 in data set [1] stood at 17.6 µM. In addition, in data set [2], the CC50 at 96 h stood at 106 µM. In addition, the “SI (selectivity index calculated from CC50/IC50)” value in the data set on L929 cells was 6.1.

Take `O=C(c1ccco1)[C@@H]1C(=O)c2ccccc2O[C@H]1c1ccccc1` (relative stereo) [Compound 2v, trans-3-(furan-2-carbonyl)-2-phenylchroman-4-one]: in data set [1], the “Trypanocide IC50(μM) ± 0.2” value is “Inactive”.

As for `COc1ccc([C@@H]2Oc3ccccc3C(=O)[C@H]2C(=O)c2ccco2)cc1` (relative stereo) [Compound 2w, trans-3-(furan-2-carbonyl)-2-(4-methoxyphenyl)chroman-4-one], the “Trypanocide IC50(μM) ± 0.2” value in data set [1] is given as “Inactive”.

`O=C(c1ccco1)[C@@H]1C(=O)c2ccccc2O[C@H]1c1ccc(F)cc1` (relative stereo) [Compound 2x, trans-2-(4-fluorophenyl)-3-(furan-2-carbonyl)chroman-4-one]: in data set [1], the “Trypanocide IC50(μM) ± 0.2” value is recorded as “Inactive”.

For `C[C@@H]1Oc2ccccc2C(=O)[C@H]1C(=O)c1ccccc1` (relative stereo) [Compound 3, trans-3-benzoyl-2-methylchroman-4-one], in data set [1], the “Trypanocide IC50(μM) ± 0.2” value is “completely inactive”.

For the compound `O=C(Cn1ccnc1[N+](=O)[O-])NCc1ccccc1` [Bnz, Benznidazole, reference compound], the IC50 in data set [1] turned out to be 3.8 µM. Besides, the “SI (selectivity index calculated from CC50/IC50)” value with L929 cells is listed as 625.

The IC50 is the point on the concentration scale where inhibition reaches its midpoint. One may read the CC50 as the concentration at which the toxic effect on the cells reaches its halfway point.
